One assay has as its system growth hormone. Briefly: arginine-stimulated hormone release in Nembutal-anaesthetised rats, blood assayed for growth hormone. Type of assay: in vivo, albino male rats. The following applies: saline control 133 ± 15. The procedure: (§1) The in vivo activity of the compounds of this invention was established by subjecting (Gly3 -Ala)^1 -Somatostatin, as a representative compound of this invention, to the following standard test procedure: three groups of nine albino male rats were arranged to provide a control group, a group for observation of Somatostatin activity as the standard and a group for the study of the test compound (Gly3 -Ala)^1 -Somatostatin. Nembutal (50 mg/kg) was injected intraperitoneally into each rat. Fifteen minutes later a subcutaneous injection of the test compound, somatostatin (200 μg/kg) and physiological saline was administered separately to each of the three groups of rats. Ten minutes later 0.5 milliliters of arginine (300 mg/ml, pH 7.2) was injected into the rats heart. The rats were decapitated five minutes later and their blood was collected in Trasylol® -EDTA. Aliquot samples were assayed for growth hormone, glucagon and/or insulin. The compound of this invention, selected as representative of the group of compounds disclosed for test pruposes, was employed in two distinct test procedures at the 100 μg/kg and 300 μg/kg dose levels.

A further assay relates to glucagon. In words: arginine-stimulated hormone release in Nembutal-anaesthetised rats, blood assayed for glucagon. The assay is classed as in vivo, albino male rats. The procedure:
as §1

Another assay relates to insulin. Briefly: arginine-stimulated hormone release in Nembutal-anaesthetised rats, blood assayed for insulin. The assay is classed as in vivo, albino male rats. The procedure:
as §1

The subject of assay [1] is growth hormone, glucagon and/or insulin. In words: standard in vivo test procedure, overall activity compared with somatostatin. Also on record: species or system albino male rats. To be noted: at the 100 and 300 μg/kg dose levels. The procedure: as §1

As to `C[C@H](N)C(=O)NCC(=O)N[C@H]1CSSC[C@@H](C(=O)O)NC(=O)[C@H](CO)NC(=O)[C@H]([C@@H](C)O)NC(=O)[C@H](Cc2ccccc2)NC(=O)[C@H]([C@@H](C)O)NC(=O)[C@H](CCCCN)NC(=O)[C@H](Cc2c[nH]c3ccccc23)NC(=O)[C@H](Cc2ccccc2)NC(=O)[C@H](Cc2ccccc2)NC(=O)[C@H](CC(N)=O)NC(=O)[C@H](CCCCN)NC1=O` [Somatostatin], in the assay on growth hormone (second test (run beside the 300 μg/kg group), somatostatin standard 200 μg/kg subcutaneous), the GH was 12 ± 2 ng/mL. The Glucagon in the assay on glucagon (first test (run beside the 100 μg/kg group), somatostatin standard 200 μg/kg subcutaneous, saline control 6.4 ± 1.5) was 1.5 ± 0.8 picograms/ml; with glucagon (second test (run beside the 300 μg/kg group), somatostatin standard 200 μg/kg subcutaneous, saline control 4.2 ± 0.6) it was 1.6 ± 0.9 picograms/ml. For the same compound, the Insulin came out at 202 ± 29 μ units/ml in the assay on insulin (first test (run beside the 100 μg/kg group), somatostatin standard 200 μg/kg subcutaneous, saline control 199 ± 15) and 115 ± 11 μ units/ml in the assay with insulin (second test (run beside the 300 μg/kg group), somatostatin standard 200 μg/kg subcutaneous, saline control 165 ± 13).
Take `C[C@H](NC(=O)CNC(=O)CNC(=O)CN)C(=O)NCC(=O)N[C@H]1CSSC[C@@H](C(=O)O)NC(=O)[C@H](CO)NC(=O)[C@H]([C@@H](C)O)NC(=O)[C@H](Cc2ccccc2)NC(=O)[C@H]([C@@H](C)O)NC(=O)[C@H](CCCCN)NC(=O)[C@H](Cc2c[nH]c3ccccc23)NC(=O)[C@H](Cc2ccccc2)NC(=O)[C@H](Cc2ccccc2)NC(=O)[C@H](CC(N)=O)NC(=O)[C@H](CCCCN)NC1=O` [(Gly3 -Ala)^1 -Somatostatin, glycyl-glycyl-glycyl-L-alanylglycyl-L-cysteinyl-L-lysyl-L-asparaginyl-L-phenylalanyl-L-phenylalanyl-L-tryptophyl-L-lysyl-L-threonyl-L-phenylalanyl-L- threonyl-L-seryl-L-cysteine cyclic (6→.intg.) disulfide, triacetate]: the “activity relative to somatostatin itself” value in assay [1] was “comparable in activity”. Further, in the assay on growth hormone (second test, test compound 300 μg/kg subcutaneous), the GH was 27 ± 7 ng/mL. Besides, the Glucagon in the assay on glucagon (first test, test compound 100 μg/kg subcutaneous, arginine intracardiac 10 min later, blood 5 min after arginine, saline control 6.4 ± 1.5) is recorded as 0.5 ± 0.1 picograms/ml; with glucagon (second test, test compound 300 μg/kg subcutaneous, saline control 4.2 ± 0.6) it was 1.4 ± 0.7 picograms/ml. Besides, the Insulin worked out at 130 ± 14 μ units/ml in the assay on insulin (first test, test compound 100 μg/kg subcutaneous, arginine intracardiac 10 min later, blood 5 min after arginine, saline control 199 ± 15) and 104 ± 10 μ units/ml in the assay on insulin (second test, test compound 300 μg/kg subcutaneous, saline control 165 ± 13).
